Results from patent US12077503B2, “Substituted cyclic amides and their use as herbicides” (FMC CORPORATION, priority 2015, dated 2024).

Experiments:
Assay type in all cases: in vivo
[1] = test system: Kochia (Kochia scoparia); assay: Test A preemergence; details: Bassia scoparia, pre-emergence, 240 h, Preemergence
Method in brief: (§1)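 Each rating is a visual injury score from 0 to 100 given about 10 d after treatment, judged against untreated controls kept alongside in the greenhouse. In loam soil–sand blend, seeds got a preemergence directed soil spray, while postemergence plants were 2 to 10 cm tall at spraying.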

[2] = test system: barnyardgrass (Echinochloa crus-galli); assay: Test A preemergence; details: Echinochloa crus-galli, pre-emergence, 240 h, Preemergence
Method in brief: as §1

[3] = test system: pigweed (Amaranthus retroflexus); assay: Test A preemergence; details: Amaranthus retroflexus, pre-emergence, 240 h, Preemergence
[4] = test system: ragweed (common ragweed, Ambrosia elatior); assay: Test A preemergence; details: Ambrosia artemisiifolia, pre-emergence, 240 h, Preemergence
Method in brief: as §1

[5] = test system: ryegrass, Italian (Italian ryegrass, Lolium multiflorum); assay: Test A preemergence; details: Lolium multiflorum, pre-emergence, 240 h, Preemergence
Method in brief: as §1

[6] = test system: Galium (catchweed bedstraw, Galium aparine); assay: Test A postemergence; details: Galium, post-emergence, 240 h, Postemergence, read-out: Galium plant response rating (0 to 100 scale)
Method in brief: as §1

[7] = test system: Kochia (Kochia scoparia); assay: Test A postemergence; details: Bassia scoparia, post-emergence, 240 h, Postemergence, read-out: Kochia plant response rating (0 to 100 scale)
Method in brief: as §1

[8] = test system: barnyardgrass (Echinochloa crus-galli); assay: Test A postemergence; details: Echinochloa crus-galli, post-emergence, 240 h, Postemergence
Method in brief: as §1

[9] = test system: blackgrass (Alopecurus myosuroides); assay: Test A postemergence; details: Alopecurus myosuroides, post-emergence, 240 h, Postemergence, read-out: Blackgrass plant response rating (0 to 100 scale)
Method in brief: as §1

[10] = test system: corn (Zea mays); assay: Test A postemergence; details: Zea mays, post-emergence, 240 h, Postemergence, read-out: Corn plant response rating (0 to 100 scale)
Method in brief: as §1

[11] = test system: giant foxtail (Setaria faberii); assay: Test A postemergence; details: Setaria faberi, post-emergence, 240 h, Postemergence, read-out: Foxtail, Giant plant response rating (0 to 100 scale)
Method in brief: as §1

[12] = test system: pigweed (Amaranthus retroflexus); assay: Test A postemergence; details: Amaranthus retroflexus, post-emergence, 240 h, Postemergence, read-out: Pigweed plant response rating (0 to 100 scale)
Method in brief: as §1

[13] = test system: ragweed (common ragweed, Ambrosia elatior); assay: Test A postemergence; details: Ambrosia artemisiifolia, post-emergence, 240 h, Postemergence, read-out: Ragweed plant response rating (0 to 100 scale)
Method in brief: as §1

[14] = test system: ryegrass, Italian (Italian ryegrass, Lolium multiflorum); assay: Test A postemergence; details: Lolium multiflorum, post-emergence, 240 h, Postemergence, read-out: Ryegrass, Italian plant response rating (0 to 100 scale)
Method in brief: as §1

[15] = test system: wheat (Triticum aestivum); assay: Test A postemergence; details: Triticum aestivum, post-emergence, 240 h, Postemergence, read-out: Wheat plant response rating (0 to 100 scale)
Method in brief: as §1

[16] = 125 g ai/ha, visual rating about 10 d after treatment
[17] = 31 g ai/ha, 0 is no effect, 100 is complete control

CN1C[C@H](c2csc3c2CCC(F)(F)C3)[C@@H](C(=O)Nc2ccccc2S(C)(=O)=O)C1=O (racemic) [Compound 1367]
pest or weed control at 31 g/ha ([1]; 31 g ai/ha, 0 to 100 scale where 0 is no effect and 100 is complete control, read-out: Kochia plant response rating): 0% | pest or weed control at 125 g/ha ([1]; 125 g ai/ha, 0 to 100 scale (0 no effect, 100 complete control), read-out: Plant response rating, Kochia): 0% | pest or weed control at 31 g/ha ([2]; 31 g ai/ha, 0 to 100 scale where 0 is no effect and 100 is complete control, read-out: Barnyardgrass plant response rating): 0% | pest or weed control at 125 g/ha ([2]; 125 g ai/ha, 0 to 100 scale (0 no effect, 100 complete control), read-out: Plant response rating, Barnyardgrass): 80% | pest or weed control at 31 g/ha ([3]; 31 g ai/ha, 0 to 100 scale where 0 is no effect and 100 is complete control, read-out: Pigweed plant response rating): 0% | pest or weed control at 125 g/ha ([3]; 125 g ai/ha, 0 to 100 scale (0 no effect, 100 complete control), read-out: Plant response rating, Pigweed): 0% | pest or weed control at 31 g/ha ([4]; 31 g ai/ha, 0 to 100 scale where 0 is no effect and 100 is complete control, read-out: Ragweed plant response rating): 0% | pest or weed control at 125 g/ha ([4]; 125 g ai/ha, 0 to 100 scale (0 no effect, 100 complete control), read-out: Plant response rating, Ragweed): 0% | pest or weed control at 31 g/ha ([5]; 31 g ai/ha, 0 to 100 scale where 0 is no effect and 100 is complete control, read-out: Ryegrass, Italian plant response rating): 0% | pest or weed control at 125 g/ha ([5]; 125 g ai/ha, 0 to 100 scale (0 no effect, 100 complete control), read-out: Plant response rating, Ryegrass, Italian): 0% | pest or weed control at 125 g/ha [6, 16]: 0% | pest or weed control at 31 g/ha [6, 17]: 0% | pest or weed control at 125 g/ha [7, 16]: 0% | pest or weed control at 31 g/ha [7, 17]: 0% | pest or weed control at 125 g/ha ([8]; 125 g ai/ha, visual rating about 10 d after treatment, read-out: Barnyardgrass plant response rating (0 to 100 scale, 0 no effect, 100 complete control)): 30% | pest or weed control at 31 g/ha ([8]; 31 g ai/ha, 0 is no effect, 100 is complete control, read-out: Barnyardgrass plant response rating (0 to 100 scale)): 0% | pest or weed control at 125 g/ha [9, 16]: 0% | pest or weed control at 31 g/ha [9, 17]: 0% | plant injury at 125 g/ha [10, 16]: 0% | plant injury at 31 g/ha [10, 17]: 0% | pest or weed control at 125 g/ha [11, 16]: 30% | pest or weed control at 31 g/ha [11, 17]: 0% | pest or weed control at 125 g/ha [12, 16]: 20% | pest or weed control at 31 g/ha [12, 17]: 0% | pest or weed control at 125 g/ha [13, 16]: 0% | pest or weed control at 31 g/ha [13, 17]: 0% | pest or weed control at 125 g/ha [14, 16]: 0% | pest or weed control at 31 g/ha [14, 17]: 0% | plant injury at 125 g/ha [15, 16]: 0% | plant injury at 31 g/ha [15, 17]: 0%
